The source made the active and inactive calls. The calls are words filed in the database; no cut-off is given here.
What was measured:
Rattus norvegicus [1] = assay: Analgesic activity in ip dosed rat L5/L6 spinal nerve ligation-induced neuropathic pain model; type: functional
Rattus norvegicus [2] = assay: Analgesic activity in rat L5/L6 spinal nerve ligation-induced neuropathic pain model at 100 mg/kg, ip; type: functional; details: route intraperitoneal
Rattus norvegicus [3] = assay: Analgesic activity in rat chronic constriction injury model of mechanical allodynia at 100 mg/kg, ip; type: functional; details: route intraperitoneal
Rattus norvegicus [4] = assay: Analgesic activity in ip dosed rat chronic constriction injury model of cold allodynic neuropathic pain; type: functional
Rattus norvegicus [5] = assay: Analgesic activity in rat chronic constriction injury model of cold allodynic neuropathic pain at 100 mg/kg, ip; type: functional; details: route intraperitoneal
Rattus norvegicus [6] = assay: Analgesic activity in rat skin incision model of post-operative pain at 100 mg/kg, ip after 24 hrs; type: functional; details: route intraperitoneal
Mus musculus = assay: Analgesic activity in ip dosed mouse visceral pain model assessed as acetic acid induced writhing; type: functional
Rattus norvegicus [7] = species on record: Rattus norvegicus; assay: Motor effect in rat assessed as locomotory activity; type: functional
Rattus norvegicus [8] = species on record: Rattus norvegicus; assay: Motor effect in rat by rotarod test; type: functional
Rattus norvegicus [9] = assay: Motor effect in rat by rotarod test at 300 mg/kg, ip; type: functional; details: route intraperitoneal
[10] = molecular target: 5-hydroxytryptamine receptor 2A (Homo sapiens, UniProt P28223); assay: Displacement of [3H]ketanserin from 5HT2A receptor
[11] = molecular target: 5-hydroxytryptamine receptor 2C (Homo sapiens, UniProt P28335); assay: Displacement of [3H]mesulergine from 5HT2C receptor
[12] = molecular target: 5-hydroxytryptamine receptor 3A (Homo sapiens, UniProt P46098); assay: Displacement of [3H]BRL43694 from 5HT3 receptor
[13] = molecular target: 5-hydroxytryptamine receptor 5A (Homo sapiens, UniProt P47898); assay: Displacement of [3H]LSD from 5HT5A receptor
[14] = molecular target: 5-hydroxytryptamine receptor 6 (Homo sapiens, UniProt P50406); assay: Displacement of [3H]LSD from 5HT6 receptor
DRG neuron [15] = assay: Suppression of spontaneous firing of rat DRG neurons at 0.3 uM; type: functional, cell-based
[16] = Oral bioavailability in rat; type: ADME, organism-based; details: in vivo
[17] = Clearance in rat plasma; type: ADME, organism-based
[18] = Elimination half life in iv dosed rat; type: ADME, organism-based; details: in vivo
[19] = Cmax in rat at 10 mg/kg, po; type: ADME, organism-based; design: dose 10 mg/kg, route oral; details: in vivo
[20] = molecular target: Voltage-dependent N-type calcium channel subunit alpha-1B (Homo sapiens, UniProt Q00975); assay: Inhibition of Cav2.2 channel
DRG neuron [21] = assay: Suppression of evoked action potential firing in rat DRG neurons at 0.1 uM; type: functional
[22] = Cmax in rat at 10 mg/kg, ip; type: ADME, organism-based; design: dose 10 mg/kg, route intraperitoneal; details: in vivo
[23] = Drug level in rat plasma at 10 to 100 mg/kg, ip after 45 mins; type: ADME, organism-based; design: dose 10-100 mg/kg, route intraperitoneal
Rattus norvegicus [24] = species on record: Rattus norvegicus; assay: Analgesic activity in rat spinal nerve ligation model at 200 to 300 nM; type: functional
Rattus norvegicus [25] = assay: Antinociceptive activity in rat assessed as reduction of spontaneous firing of spinal dorsal horn wide dynamic range neurons at 20 mg/kg, iv; type: functional, Dorsal horn of spinal cord; design: scale not given: the % may be the effect or the level left
Rattus norvegicus [26] = assay: Antinociceptive activity in rat assessed as reduction of von Frey evoked firing of spinal dorsal horn wide dynamic range neurons at 20 mg/kg, iv; type: functional, Dorsal horn of spinal cord; design: scale not given: the % may be the effect or the level left
Rattus norvegicus [27] = assay: Analgesic activity in ip dosed rat formalin flinching inflammatory pain model; type: functional
Rattus norvegicus [28] = assay: Analgesic activity in rat formalin flinching inflammatory pain model at 300 mg/kg, ip; type: functional; details: route intraperitoneal
Rattus norvegicus [29] = assay: Analgesic activity in ip dosed rat carrageenan-induced […] pain model; type: functional
Rattus norvegicus [30] = assay: Analgesic activity in ip dosed rat complete Freund's adjuvant-induced thermal hyperalgesia model assessed as paw withdrawal latency after 2 days; type: functional; details: 48 h
Rattus norvegicus [31] = assay: Analgesic activity in rat complete Freund's adjuvant-induced thermal hyperalgesia model assessed as paw withdrawal latency at 100 mg/kg, ip after 4 days; type: functional; details: route intraperitoneal
Rattus norvegicus [32] = assay: Analgesic activity in ip dosed rat complete Freund's adjuvant-induced mechanical hyperalgesia model assessed as paw withdrawal latency after 2 days; type: functional; details: 48 h
Adenosine receptor A1 = Adenosine receptor A1 (Homo sapiens, UniProt P30542); assay: Displacement of [3H]DPCPX from adenosine A1 receptor
[33] = Displacement of [3H]prazosin from adrenergic alpha-1 receptor
ADRB1 = ADRB1 (Homo sapiens, UniProt P08588); assay: Displacement of [3H](-)CGP-12177 from adrenergic beta-1 receptor
Endothelin-1 receptor = Endothelin-1 receptor (Homo sapiens, UniProt P25101); assay: Displacement of [125I]endothelin-1 from endothelin ETA receptor
[34] = molecular target: T1, Sodium channel protein type 10 subunit alpha (Rattus norvegicus, UniProt Q62968); assay: Inhibition of Nav1.8 channel in rat dorsal root ganglion neurons assessed as blockade of TTX-R current at -100 mV by patch clamp method; type: tissue-based
[35] = molecular target: Transient receptor potential cation channel subfamily V member 1 (Homo sapiens, UniProt Q8NER1); assay: Inhibition of TRPV1
[36] = molecular target: Sodium channel protein type 10 subunit alpha (Homo sapiens, UniProt Q9Y5Y9); assay: Inhibition of human Nav1.8 channel expressed in human HEK293 cells by patch clamp method; type: cell-based
[37] = molecular target: T1, Sodium channel protein type 10 subunit alpha; assay: Inhibition of Nav1.8 channel in rat dorsal root ganglion neurons assessed as blockade of TTX-R current by patch clamp method; type: tissue-based
[38] = molecular target: Sodium channel protein type 2 subunit alpha (Homo sapiens, UniProt Q99250); assay: Inhibition of human Nav1.2 channel expressed in HEK293 cells at -60 mV by patch clamp method; type: cell-based
[39] = molecular target: Sodium channel protein type 3 subunit alpha (Homo sapiens, UniProt Q9NY46); assay: Inhibition of human Nav1.3 channel expressed in HEK293 cells at -120 mV by patch clamp method; type: cell-based
[40] = molecular target: Sodium channel protein type 9 subunit alpha (Homo sapiens, UniProt Q15858); assay: Inhibition of human Nav1.7 channel expressed in HEK293 cells at -120 mV by patch clamp method; type: cell-based
D(3) dopamine receptor = D(3) dopamine receptor (Homo sapiens, UniProt P35462); assay: Displacement of [3H]spiperone from dopamine D3 receptor
[41] = molecular target: C-X-C chemokine receptor type 2 (Homo sapiens, UniProt P25025); assay: Displacement of [125I]IL8 from CXCR2 receptor
Histamine H1 receptor = Histamine H1 receptor (Homo sapiens, UniProt P35367); assay: Displacement of [3H]pyrilamine from histamine H1 receptor
Histamine H2 receptor = Histamine H2 receptor (Homo sapiens, UniProt P25021); assay: Displacement of [125I]APT from histamine H2 receptor
[42] = molecular target: Muscarinic acetylcholine receptor M3 (Homo sapiens, UniProt P20309); assay: Displacement of [3H]4DAMP from muscarinic M3 receptor
[43] = molecular target: Muscarinic acetylcholine receptor M4 (Homo sapiens, UniProt P08173); assay: Displacement of [3H]4DAMP from muscarinic M4 receptor
[44] = molecular target: Kappa-type opioid receptor (Homo sapiens, UniProt P41145); assay: Displacement of [3H]U-69593 from opioid kappa receptor
[45] = Displacement of [3H]PACAP1-27 from PACAP PAC1 receptor
P2X purinoceptor 2 = P2X purinoceptor 2 (Homo sapiens, UniProt Q9UBL9); assay: Displacement of [3H]alpha,beta-methyl ATP from P2X receptor

T1 sequence (Q62968 whole entry): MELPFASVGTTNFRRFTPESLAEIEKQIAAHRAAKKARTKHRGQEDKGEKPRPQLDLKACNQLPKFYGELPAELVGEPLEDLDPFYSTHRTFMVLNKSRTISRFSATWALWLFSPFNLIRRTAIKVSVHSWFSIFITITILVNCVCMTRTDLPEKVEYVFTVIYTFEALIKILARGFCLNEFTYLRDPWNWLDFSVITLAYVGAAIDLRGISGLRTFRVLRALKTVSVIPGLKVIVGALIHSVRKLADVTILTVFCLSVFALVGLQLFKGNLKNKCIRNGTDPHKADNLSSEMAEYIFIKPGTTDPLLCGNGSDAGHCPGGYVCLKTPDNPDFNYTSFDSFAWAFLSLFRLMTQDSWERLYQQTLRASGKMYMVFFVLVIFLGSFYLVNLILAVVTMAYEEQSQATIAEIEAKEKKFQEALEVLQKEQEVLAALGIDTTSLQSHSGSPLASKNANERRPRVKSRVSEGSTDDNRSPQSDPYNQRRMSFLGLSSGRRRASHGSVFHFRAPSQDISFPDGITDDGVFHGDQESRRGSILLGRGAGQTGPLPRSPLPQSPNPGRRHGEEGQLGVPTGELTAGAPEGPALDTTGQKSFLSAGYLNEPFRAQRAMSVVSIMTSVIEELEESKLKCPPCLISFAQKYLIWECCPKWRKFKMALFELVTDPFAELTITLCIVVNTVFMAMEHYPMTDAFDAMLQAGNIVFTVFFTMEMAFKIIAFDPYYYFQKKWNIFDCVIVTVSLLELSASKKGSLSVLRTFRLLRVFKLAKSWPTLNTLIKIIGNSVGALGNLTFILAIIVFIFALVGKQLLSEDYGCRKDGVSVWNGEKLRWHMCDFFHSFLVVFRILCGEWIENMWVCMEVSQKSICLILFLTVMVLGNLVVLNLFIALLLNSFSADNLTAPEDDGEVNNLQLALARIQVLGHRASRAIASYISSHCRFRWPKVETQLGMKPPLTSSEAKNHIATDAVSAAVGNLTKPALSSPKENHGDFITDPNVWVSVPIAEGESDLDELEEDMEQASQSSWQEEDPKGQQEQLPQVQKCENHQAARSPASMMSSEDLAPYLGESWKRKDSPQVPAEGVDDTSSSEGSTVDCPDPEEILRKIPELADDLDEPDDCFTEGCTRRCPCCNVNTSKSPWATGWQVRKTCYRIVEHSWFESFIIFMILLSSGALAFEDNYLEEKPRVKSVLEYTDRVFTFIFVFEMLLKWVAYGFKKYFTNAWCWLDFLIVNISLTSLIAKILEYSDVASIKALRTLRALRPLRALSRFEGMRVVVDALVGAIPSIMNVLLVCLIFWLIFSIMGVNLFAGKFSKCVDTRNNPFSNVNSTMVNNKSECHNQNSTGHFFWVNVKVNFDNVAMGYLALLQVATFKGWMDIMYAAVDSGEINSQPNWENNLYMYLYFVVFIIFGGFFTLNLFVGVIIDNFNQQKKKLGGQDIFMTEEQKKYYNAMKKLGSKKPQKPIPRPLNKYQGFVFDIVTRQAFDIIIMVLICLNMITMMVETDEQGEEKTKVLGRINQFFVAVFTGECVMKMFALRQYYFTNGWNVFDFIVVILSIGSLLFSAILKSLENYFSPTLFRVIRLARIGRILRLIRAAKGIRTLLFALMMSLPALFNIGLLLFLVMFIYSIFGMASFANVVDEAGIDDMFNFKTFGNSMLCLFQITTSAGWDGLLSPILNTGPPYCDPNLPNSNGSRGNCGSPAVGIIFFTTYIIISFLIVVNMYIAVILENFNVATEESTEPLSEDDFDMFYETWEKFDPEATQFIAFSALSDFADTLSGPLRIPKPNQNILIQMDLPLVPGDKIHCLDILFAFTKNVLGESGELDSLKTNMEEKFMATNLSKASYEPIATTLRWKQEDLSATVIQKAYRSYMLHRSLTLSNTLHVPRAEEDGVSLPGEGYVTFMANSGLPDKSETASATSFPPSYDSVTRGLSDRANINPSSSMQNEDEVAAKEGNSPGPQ
Chain of C-X-C chemokine receptor type 2 (P25025 whole entry): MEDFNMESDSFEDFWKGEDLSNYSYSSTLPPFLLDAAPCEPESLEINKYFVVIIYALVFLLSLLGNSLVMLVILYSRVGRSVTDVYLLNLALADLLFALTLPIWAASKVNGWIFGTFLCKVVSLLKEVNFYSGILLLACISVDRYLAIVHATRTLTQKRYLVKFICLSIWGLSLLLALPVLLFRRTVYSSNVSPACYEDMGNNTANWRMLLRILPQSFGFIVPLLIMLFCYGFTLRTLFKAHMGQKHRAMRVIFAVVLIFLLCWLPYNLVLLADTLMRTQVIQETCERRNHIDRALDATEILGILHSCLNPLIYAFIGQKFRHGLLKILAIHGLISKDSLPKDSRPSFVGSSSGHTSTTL
Chain of Adenosine receptor A1 (P30542 whole entry): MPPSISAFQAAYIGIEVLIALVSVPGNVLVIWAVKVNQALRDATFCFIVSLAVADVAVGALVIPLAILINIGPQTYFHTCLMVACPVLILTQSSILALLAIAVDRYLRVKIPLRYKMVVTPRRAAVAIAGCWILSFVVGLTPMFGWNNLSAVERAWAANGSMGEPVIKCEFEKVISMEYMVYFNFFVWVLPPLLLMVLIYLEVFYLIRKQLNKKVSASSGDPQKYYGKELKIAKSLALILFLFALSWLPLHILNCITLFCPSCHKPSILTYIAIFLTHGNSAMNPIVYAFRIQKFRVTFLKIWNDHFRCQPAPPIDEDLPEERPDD
Chain of Sodium channel protein type 2 subunit alpha (Q99250 whole entry): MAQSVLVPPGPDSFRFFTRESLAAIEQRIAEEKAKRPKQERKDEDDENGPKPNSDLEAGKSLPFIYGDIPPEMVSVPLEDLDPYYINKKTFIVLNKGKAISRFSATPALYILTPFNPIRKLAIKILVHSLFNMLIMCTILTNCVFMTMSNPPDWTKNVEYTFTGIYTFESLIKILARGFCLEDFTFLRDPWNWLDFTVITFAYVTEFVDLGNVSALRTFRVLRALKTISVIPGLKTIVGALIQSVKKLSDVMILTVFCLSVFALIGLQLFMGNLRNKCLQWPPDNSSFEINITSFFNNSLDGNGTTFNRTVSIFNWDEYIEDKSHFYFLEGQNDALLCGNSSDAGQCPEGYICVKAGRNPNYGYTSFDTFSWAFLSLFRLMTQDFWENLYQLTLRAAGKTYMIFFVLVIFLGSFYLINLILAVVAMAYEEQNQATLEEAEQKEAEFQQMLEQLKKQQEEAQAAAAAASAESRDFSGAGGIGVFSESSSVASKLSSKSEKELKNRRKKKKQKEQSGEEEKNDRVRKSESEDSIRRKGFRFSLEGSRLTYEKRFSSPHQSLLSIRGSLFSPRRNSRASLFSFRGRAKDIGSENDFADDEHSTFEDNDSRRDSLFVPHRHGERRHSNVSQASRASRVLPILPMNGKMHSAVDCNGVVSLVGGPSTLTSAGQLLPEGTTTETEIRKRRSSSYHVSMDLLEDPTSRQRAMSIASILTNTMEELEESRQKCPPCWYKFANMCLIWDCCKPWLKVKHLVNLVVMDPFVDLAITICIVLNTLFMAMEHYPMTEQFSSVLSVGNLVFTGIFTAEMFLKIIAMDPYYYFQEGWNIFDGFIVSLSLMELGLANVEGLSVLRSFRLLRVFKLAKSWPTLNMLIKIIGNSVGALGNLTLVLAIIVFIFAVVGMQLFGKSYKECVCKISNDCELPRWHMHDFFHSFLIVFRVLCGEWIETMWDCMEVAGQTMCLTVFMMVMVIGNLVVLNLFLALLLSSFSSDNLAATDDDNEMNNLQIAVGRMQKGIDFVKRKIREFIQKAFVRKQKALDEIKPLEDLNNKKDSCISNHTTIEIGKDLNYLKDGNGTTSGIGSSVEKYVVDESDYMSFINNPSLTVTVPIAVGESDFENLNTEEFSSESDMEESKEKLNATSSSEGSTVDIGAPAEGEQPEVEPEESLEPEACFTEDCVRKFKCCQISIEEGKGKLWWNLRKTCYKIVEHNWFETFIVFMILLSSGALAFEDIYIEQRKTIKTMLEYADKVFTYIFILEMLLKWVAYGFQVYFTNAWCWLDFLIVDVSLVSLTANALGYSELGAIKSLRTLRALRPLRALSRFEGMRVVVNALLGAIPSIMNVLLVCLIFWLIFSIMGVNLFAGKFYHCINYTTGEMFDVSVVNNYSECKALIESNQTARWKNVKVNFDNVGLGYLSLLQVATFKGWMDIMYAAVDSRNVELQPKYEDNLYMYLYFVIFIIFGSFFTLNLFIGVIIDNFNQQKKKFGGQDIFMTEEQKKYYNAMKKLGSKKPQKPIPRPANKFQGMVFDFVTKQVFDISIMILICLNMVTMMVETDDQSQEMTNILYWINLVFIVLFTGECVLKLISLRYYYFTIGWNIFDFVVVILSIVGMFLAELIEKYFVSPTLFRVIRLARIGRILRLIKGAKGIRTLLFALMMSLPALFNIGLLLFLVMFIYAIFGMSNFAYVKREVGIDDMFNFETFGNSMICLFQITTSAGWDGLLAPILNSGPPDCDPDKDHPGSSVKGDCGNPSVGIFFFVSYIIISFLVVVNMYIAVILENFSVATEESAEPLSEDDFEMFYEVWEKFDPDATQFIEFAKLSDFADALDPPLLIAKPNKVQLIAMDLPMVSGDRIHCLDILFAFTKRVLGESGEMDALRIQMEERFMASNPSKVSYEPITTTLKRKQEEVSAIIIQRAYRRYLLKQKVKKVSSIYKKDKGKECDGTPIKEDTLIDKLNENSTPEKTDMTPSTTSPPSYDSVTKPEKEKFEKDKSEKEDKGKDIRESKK
Chain of Histamine H2 receptor (P25021 whole entry): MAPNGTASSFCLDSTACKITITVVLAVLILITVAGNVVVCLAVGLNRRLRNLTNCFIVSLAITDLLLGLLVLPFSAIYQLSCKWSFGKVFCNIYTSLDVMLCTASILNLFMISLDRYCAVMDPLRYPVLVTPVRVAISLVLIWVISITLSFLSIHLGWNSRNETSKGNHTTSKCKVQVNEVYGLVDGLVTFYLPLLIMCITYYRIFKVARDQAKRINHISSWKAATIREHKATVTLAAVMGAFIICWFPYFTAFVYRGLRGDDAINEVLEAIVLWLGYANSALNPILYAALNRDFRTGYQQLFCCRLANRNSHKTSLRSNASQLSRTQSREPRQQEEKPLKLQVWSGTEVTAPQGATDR

Structure (SMILES): COc1cc(NC(=O)c2ccc(-c3ccc(Cl)cc3)o2)cc(OC)c1
- ED50 (Rattus norvegicus [1]): 47 mg/kg
- Activity (Rattus norvegicus [2]): 70%
- Activity (Rattus norvegicus [3]): 56%
- ED50 (Rattus norvegicus [4]): 70 mg/kg
- Activity (Rattus norvegicus [5]): 61%
- Activity (Rattus norvegicus [6]): 32%
- ED50 (Mus musculus): > 100 mg/kg
- ED50 (Rattus norvegicus [7]): > 300 mg/kg
- ED50 (Rattus norvegicus [8]): > 300 mg/kg
- Activity (Rattus norvegicus [9]): 0%
- IC50 [10]: 3 µM
- IC50 [11]: > 10 µM
- IC50 [12]: > 10 µM
- IC50 [13]: > 10 µM
- IC50 [14]: > 10 µM
- Activity (DRG neuron [15]): Active
- bioavailability [16]: 12.8%
- clearance [17]: 25 mL/min/kg
- half-life [18]: 4.9 h
- Cmax [19]: 190 ng/mL
- IC50 [20]: > 10 µM
- Activity (DRG neuron [21]): inactive
- Cmax [22]: 350 ng/mL
- concentration at 0.75 h [23]: 400 ng/mL
- Activity (Rattus norvegicus [24]): >70%
- Activity (Rattus norvegicus [25]): 66%
- Activity (Rattus norvegicus [26]): 53%
- ED50 (Rattus norvegicus [27]): > 100 mg/kg
- Activity (Rattus norvegicus [28]): 9%
- ED50 (Rattus norvegicus [29]): 100 mg/kg
- ED50 (Rattus norvegicus [30]): 100 mg/kg
- Activity (Rattus norvegicus [31]): 71%
- ED50 (Rattus norvegicus [32]): > 100 mg/kg
- IC50 (Adenosine receptor A1): > 10 µM
- IC50 [33]: > 10 µM
- IC50 (ADRB1): > 10 µM
- IC50 (Endothelin-1 receptor): > 10 µM
- IC50 [34]: 1 µM
- IC50 [35]: > 10 µM
- IC50 [36]: 0.008 µM
- IC50 [37]: 0.14 µM
- IC50 [38]: 7.38 µM
- IC50 [39]: 11.8 µM
- IC50 [40]: 35.3 µM
- IC50 (D(3) dopamine receptor): > 10 µM
- IC50 [41]: > 10 µM
- IC50 (Histamine H1 receptor): > 10 µM
- IC50 (Histamine H2 receptor): > 10 µM
- IC50 [42]: > 10 µM
- IC50 [43]: > 10 µM
- IC50 [44]: > 10 µM
- IC50 [45]: > 10 µM
- IC50 (P2X purinoceptor 2): > 10 µM

From ChEMBL document CHEMBL1142222, “A-803467, a potent and selective Nav1.8 sodium channel blocker, attenuates neuropathic and inflammatory pain in the rat” (Proc Natl Acad Sci U S A, 2007)
